Test results from patent publication US20040167165A1, “Methods of treating conditions associated with an Edg-7 receptor” (priority 2003, published 2004).

Key:
human Edg 7 receptors = target: T1, human Edg 7 receptors (Homo sapiens, UniProt Q9UBY5); assay: LPA-stimulated calcium mobilization (FLIPR) in HTC cells expressing Edg-7; type: cell-based
T1 construct: expressed in transfected cells; host or cells: HTC rat hepatoma cells
T1 sequence (Q9UBY5 1-353): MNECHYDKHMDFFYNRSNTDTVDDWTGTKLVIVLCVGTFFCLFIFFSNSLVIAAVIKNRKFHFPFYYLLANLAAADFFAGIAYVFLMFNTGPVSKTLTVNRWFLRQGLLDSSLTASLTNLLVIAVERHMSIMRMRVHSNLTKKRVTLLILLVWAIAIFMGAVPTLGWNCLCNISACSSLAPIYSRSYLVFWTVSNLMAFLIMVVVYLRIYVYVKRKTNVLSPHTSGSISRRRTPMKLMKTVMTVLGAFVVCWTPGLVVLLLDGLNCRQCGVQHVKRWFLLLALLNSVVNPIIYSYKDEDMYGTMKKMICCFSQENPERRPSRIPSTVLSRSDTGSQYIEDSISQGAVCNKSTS
Procedure: The compounds were tested in HTC cells expressing human Edg 7 receptors, as well as in HT1080 human fibrosarcoma cell lines that naturally express Edg 7 receptors. […] The compounds are tested in this recombinant system first, and subsequently tested in cell lines expressing Edg-7 (in addition to other Edg receptors).
LPA receptors such as Edg-7, couple to calcium effector pathways, and result in increases in intracellular calcium following receptor activation (An, 1998, J. Cell. Biochem Supp. 30-31:147-157). This biological response lends itself to a very efficient, high-throughput screen using a Fluorescence Imaging Plate Reader (FLIPR; Molecular Devices, Sunnyvale, Calif.). The FLIPR system is a real-time, cell-based assay system with continuous fluorescence detection using a cooled CCD camera. The FLIPR system was used to developing an Edg-7 receptor screen. Rat hepatoma cells stably expressing Edg-7 receptor were plated on 384-well plates and loaded with a calcium dye loading kit (Molecular Devices, Sunnyvale, Calif.) for 1 hour at room temperature. Cells were then placed on the FLIPR^384 (Molecular Devices, Sunnyvale, Calif.) and excited by an argon laser at 488 nm. The data for the entire 384-well plate was updated every second. An integrated robotic pipettor allowed for simultaneous compound addition into each individual well in the plate.

Edg-2 = target: T2, Edg-2 (Homo sapiens, UniProt Q92633); assay: LPA-stimulated calcium increases in HTC cells expressing Edg-2; type: cell-based; settings: concentrations as high as 10 μM
T2 construct: expressed in transfected cells; host or cells: HTC rat hepatoma cells
T2 sequence (Q92633 whole entry): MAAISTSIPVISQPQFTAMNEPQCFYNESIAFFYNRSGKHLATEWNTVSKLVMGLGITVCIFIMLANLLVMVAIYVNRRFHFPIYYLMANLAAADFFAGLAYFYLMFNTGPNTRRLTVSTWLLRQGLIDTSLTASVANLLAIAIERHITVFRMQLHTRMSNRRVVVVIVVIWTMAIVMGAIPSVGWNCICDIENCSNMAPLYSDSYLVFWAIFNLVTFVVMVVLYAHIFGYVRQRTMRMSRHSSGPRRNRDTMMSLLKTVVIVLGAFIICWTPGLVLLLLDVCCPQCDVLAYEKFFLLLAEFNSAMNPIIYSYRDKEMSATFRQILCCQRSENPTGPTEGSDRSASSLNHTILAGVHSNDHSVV

Edg4 = assay: LPA-stimulated calcium increases in HTC cells expressing Edg4; type: cell-based; settings: concentrations as high as 10 μM
Edg-1 = target: T3, Edg-1 (Homo sapiens, UniProt P21453); assay: S1P-stimulated calcium increases in HTC cells expressing Edg-1; type: cell-based; settings: concentrations as high as 10 μM
T3 construct: expressed in transfected cells; host or cells: HTC rat hepatoma cells
T3 sequence (P21453 whole entry): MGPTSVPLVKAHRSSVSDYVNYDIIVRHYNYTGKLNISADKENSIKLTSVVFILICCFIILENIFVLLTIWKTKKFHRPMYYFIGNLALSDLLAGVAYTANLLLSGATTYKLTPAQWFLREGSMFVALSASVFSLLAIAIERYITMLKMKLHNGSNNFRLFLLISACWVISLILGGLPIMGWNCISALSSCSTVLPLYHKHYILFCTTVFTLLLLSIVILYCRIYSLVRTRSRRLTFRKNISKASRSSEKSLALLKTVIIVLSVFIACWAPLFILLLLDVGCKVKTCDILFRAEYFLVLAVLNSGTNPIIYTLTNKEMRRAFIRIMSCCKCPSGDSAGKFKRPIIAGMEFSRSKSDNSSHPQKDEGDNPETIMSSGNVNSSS

Edg-3 = target: T4, Edg-3 (Homo sapiens, UniProt Q99500); assay: S1P-stimulated calcium increases in HTC cells expressing Edg-3; type: cell-based; settings: concentrations as high as 10 μM
T4 construct: expressed in transfected cells; host or cells: HTC rat hepatoma cells
T4 sequence (Q99500 whole entry): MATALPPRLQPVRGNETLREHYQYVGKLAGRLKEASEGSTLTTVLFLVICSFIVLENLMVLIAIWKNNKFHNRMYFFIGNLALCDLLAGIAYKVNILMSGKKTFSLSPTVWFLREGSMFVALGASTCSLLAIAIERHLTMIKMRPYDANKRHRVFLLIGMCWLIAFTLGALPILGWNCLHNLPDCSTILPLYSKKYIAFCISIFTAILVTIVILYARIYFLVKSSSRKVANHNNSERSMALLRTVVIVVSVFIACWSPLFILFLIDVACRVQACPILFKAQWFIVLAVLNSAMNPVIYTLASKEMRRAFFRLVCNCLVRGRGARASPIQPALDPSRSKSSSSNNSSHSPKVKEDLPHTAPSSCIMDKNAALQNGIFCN

Edg-5 = target: T5, Edg-5 (Homo sapiens, UniProt O95136); assay: S1P-stimulated calcium increases in HTC cells expressing Edg-5; type: cell-based; settings: concentrations as high as 10 μM
T5 construct: expressed in transfected cells; host or cells: HTC rat hepatoma cells
T5 sequence (O95136 whole entry): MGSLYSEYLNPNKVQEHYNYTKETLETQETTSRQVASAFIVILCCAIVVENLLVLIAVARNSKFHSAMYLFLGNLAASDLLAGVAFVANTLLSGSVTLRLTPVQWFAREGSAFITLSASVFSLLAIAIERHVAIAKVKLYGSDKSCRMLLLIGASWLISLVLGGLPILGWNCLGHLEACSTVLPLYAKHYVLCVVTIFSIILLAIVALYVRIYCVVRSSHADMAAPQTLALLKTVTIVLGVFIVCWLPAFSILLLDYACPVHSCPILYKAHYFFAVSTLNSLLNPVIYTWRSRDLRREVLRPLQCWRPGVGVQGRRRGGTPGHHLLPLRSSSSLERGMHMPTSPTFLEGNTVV

Edg-8 = target: T6, Edg-8 (Homo sapiens, UniProt Q9H228); assay: S1P-stimulated calcium increases in HTC cells expressing Edg-8; type: cell-based; settings: concentrations as high as 10 μM
T6 construct: expressed in transfected cells; host or cells: HTC rat hepatoma cells
T6 sequence (Q9H228 whole entry): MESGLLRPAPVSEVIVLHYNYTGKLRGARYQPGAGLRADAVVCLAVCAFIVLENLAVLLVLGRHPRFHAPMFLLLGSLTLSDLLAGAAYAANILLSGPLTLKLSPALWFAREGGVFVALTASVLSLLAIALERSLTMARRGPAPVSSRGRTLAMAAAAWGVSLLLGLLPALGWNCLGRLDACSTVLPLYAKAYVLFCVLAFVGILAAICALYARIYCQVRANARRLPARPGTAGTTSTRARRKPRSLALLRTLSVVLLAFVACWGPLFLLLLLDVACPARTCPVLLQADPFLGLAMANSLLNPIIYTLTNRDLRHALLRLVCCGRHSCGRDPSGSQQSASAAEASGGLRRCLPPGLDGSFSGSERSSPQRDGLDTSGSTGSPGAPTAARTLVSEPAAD

[1] = system: targets, including GPCRs and ion channels; assay: Pharmacology profiling: radioligand binding assays on non-Edg targets; settings: Section 6.10 panel: adrenergic α1, α2, β, angiotensin AT2, calcium channel Type L, dopamine D2L, endothelin ETA, histamine H1, muscarinic, serotonin 5-HT1; significance criteria ≧50%
Procedure: In order to test the selectivity of compounds, various enzyme assays as well as radioligand binding assays were performed using numerous non-Edg receptor targets as listed below.
A radioligand binding assay was performed using adrenergic α1 according to the method of Greengrass and Bremner 1979, Eur. J. Pharmacol. 55:323-326. A radioligand binding assay was performed using adrenergic α2 according to the method of Boyajian and Leslie, 1987, J. Pharmacol. Exp. Ther. 241:1092-1098. A radioligand binding assay was performed using adrenergic β according to the method of Feve et al., 1994, Proc. Natl. Acad. Sci. USA 91:5677-5681. A radioligand binding assay was performed using angiotensin AT2 according to the method of Whitebread et al., 1991, Biochem. Biophys. Res. Comm. 181:1365-1371. A radioligand binding assay was performed using calcium channel Type L, dihydropyridine according to the method of Ehlert et al., 1982, Life Sci. 30:2191-2202. A radioligand binding assay was performed using dopamine D2L according to the method of Bunzo et al., 1988, Nature 336:783-787. A radioligand binding assay was performed using endothelin ETA according to the method of Mihara et al., 1994, J. Phrmacol. Exp Ther. 268:1122-1127. A radioligand binding assay was performed using histamine H1 Central according to the method of Hill et al., 1978, J. Neurochem. 31:997-1004. […]

Row | inhibition of the Edg-7 receptor (human Edg 7 receptors; FIG. 1, HTC cells) | inhibition of Edg-7 stimulated LPA responses (human Edg 7 receptors; HTC cells expressing human Edg 7 receptors, as well as HT1080 human fibrosarcoma cell lines) | inhibition of LPA-stimulated calcium increases (Edg-2) | inhibition of S1P-stimulated calcium increases (Edg-1) | inhibition of S1P-stimulated calcium increases (Edg-3) | inhibition of S1P-stimulated calcium increases (Edg-5) | inhibition of S1P-stimulated calcium increases (Edg-8) | activity in radioligand binding assays [1] | melting point | SMILES | inhibition of LPA-stimulated calcium increases (Edg4)
1 | specifically inhibit | demonstrate inhibition | did not inhibit | did not inhibit | did not inhibit | did not inhibit | did not inhibit | no significant activity | – | CCOC(=O)c1c(NC(=O)NS(=O)(=O)c2ccccc2Cl)sc2c1CCCC2 [Compound 101] | did not inhibit
2 | – | – | – | – | – | – | – | – | 284 to 285 °C | COc1ccc(-c2nc3ccc(C(=O)O)cc3nc2-c2ccc(OC)cc2)cc1 [Compound 129, 2,3-bis-(4-Methoxyphenyl)quinoxaline-6-carboxylic acid] | –
3 | – | – | – | – | – | – | – | – | 103 to 105 °C | Cc1cc(C)c2c(c1)Cc1ccccc1S2(=O)=O [Compound 133, 2,4-Dimethyl-9H-thioxanthene 10,10-dioxide] | –
